Like-named read-outs stand apart in the source and are kept apart here.
Columns and labels:
A549 cells [1] = assay: Cell apoptosis analysis (Annexin V-FITC/PI, FACS); format: cell-based, human; settings: for numbers of late apoptotic cells compared with control groups / numbers of necrosis cells compared with control groups: 48 h
Protocol: The process of controlled cellular death known as apoptosis has an important central role not only in normal homeostatic maintenance of tissues, but also in numerous diseases such as cancer, neurodegenerative, autoimmune, and cardiovascular diseases. After treatment by compound 6a for 48 h, the apoptosis of A549 cells were measured by fluorescence-activated cell sorter (FACS) analysis with annexin V-fluorescein isothiocyanate (FITC) and propidium iodide (PI) labelling.
Figure 4. Effect of compound 6a on cell apoptosis in A549 cells. (A) Representative density plots were obtained by FACS, (B) histograms of percentages of apoptotic cells in each group from (A) analysed by GraphPad Prism5.
(§1) Following treatment with different concentrations of compound 6a, the apoptosis of A549 cells was measured using Annexin V-FITC/PI apoptosis detection kit (KeyGEN BioTECH, Nanjing, China), according to the manufacturer’s instructions. Apoptosis of the treated cells was then detected by flow cytometry using ACEA NovoCyte.

SW480 cells = assay: MTT antiproliferative assay, SW480 cells; format: cell-based; settings: Homo sapiens, read-out: IC50 (µM) SW480
Protocol: (§2) Methyl thiazolyl tetrazolium (MTT) colorimetric assay (MTT assay)[17]^,[20] was used to evaluated the antiproliferative activities of these novel compounds against four human tumour cell lines including SW480, A549, A431 and NCI-H1975.
(§3) Figure 2. […] (A) SW480 cells, (B) A549 cells, (C) A431 cells, (D) NCI-H1975 cells. […] All error bars were represented in mean ± SE.
(§4) The effect of compounds on cell proliferation was determined using the MTT (3–(4,5-dimethylthiazol-2-yl)-2,5-diphenyltetrazolium bromide) method, which was carried out as previously described[12]^,[16].

A549 cells [2] = assay: Cell cycle analysis (PI, flow cytometry); format: cell-based, human; settings: 48 h; for percentage of cells in G0/G1 phase: untreated 51.97%
From the text: Figure 5. Effect of compound 6a on the cell cycle phase distribution in A549 cells. (A) Representative profiles were obtained by FACS, (B) histograms of percentages of percentages of cell populations in the G0/G1, S and G2/M phase in each group from (A) analysed by GraphPad Prism5. […] Percentage of cells in G0/G1, S and G2/M phases were indicated. All values were expressed as mean ± SE. *p < .05, **p < .01 and ***p < .001 indicate significant differences compared with the control at the same phase.
as §1, with “distribution” for “apoptosis”, “cell cycle” for “A549 cells”, “cell cycle” for “Annexin V-FITC/PI apoptosis”, “The cell cycle” for “Apoptosis”

A549 cells [3] = assay: MTT antiproliferative assay, A549 cells; format: cell-based; settings: Homo sapiens, read-out: IC50 (µM) A549
Protocol: as §2, §3, §4

NCI-H1975 cells = assay: MTT antiproliferative assay, NCI-H1975 cells; format: cell-based; settings: Homo sapiens, read-out: IC50 (µM) NCI-H1975
Protocol: as §2, §3, §4

[4] = target: wild type epidermal growth factor receptor tyrosine kinase (EGFR^wt-TK) (Homo sapiens, UniProt P00533); assay: In vitro EGFR^wt tyrosine kinase ELISA assay
A431 cells = assay: MTT antiproliferative assay, A431 cells; format: cell-based; settings: Homo sapiens, read-out: IC50 (µM) A431
Protocol: as §2, §3, §4

[5] = SW480, MTT, 72 h of treatment, mean ± SD of at least three independent experiments
[6] = A549, MTT, 72 h of treatment, mean ± SD of at least three independent experiments
[7] = NCI-H1975, MTT, 72 h of treatment, mean ± SD of at least three independent experiments
[8] = A-431, MTT, 72 h of treatment, mean ± SD of at least three independent experiments

Sequence of wild type epidermal growth factor receptor tyrosine kinase (EGFR^wt-TK) (P00533 25-1210): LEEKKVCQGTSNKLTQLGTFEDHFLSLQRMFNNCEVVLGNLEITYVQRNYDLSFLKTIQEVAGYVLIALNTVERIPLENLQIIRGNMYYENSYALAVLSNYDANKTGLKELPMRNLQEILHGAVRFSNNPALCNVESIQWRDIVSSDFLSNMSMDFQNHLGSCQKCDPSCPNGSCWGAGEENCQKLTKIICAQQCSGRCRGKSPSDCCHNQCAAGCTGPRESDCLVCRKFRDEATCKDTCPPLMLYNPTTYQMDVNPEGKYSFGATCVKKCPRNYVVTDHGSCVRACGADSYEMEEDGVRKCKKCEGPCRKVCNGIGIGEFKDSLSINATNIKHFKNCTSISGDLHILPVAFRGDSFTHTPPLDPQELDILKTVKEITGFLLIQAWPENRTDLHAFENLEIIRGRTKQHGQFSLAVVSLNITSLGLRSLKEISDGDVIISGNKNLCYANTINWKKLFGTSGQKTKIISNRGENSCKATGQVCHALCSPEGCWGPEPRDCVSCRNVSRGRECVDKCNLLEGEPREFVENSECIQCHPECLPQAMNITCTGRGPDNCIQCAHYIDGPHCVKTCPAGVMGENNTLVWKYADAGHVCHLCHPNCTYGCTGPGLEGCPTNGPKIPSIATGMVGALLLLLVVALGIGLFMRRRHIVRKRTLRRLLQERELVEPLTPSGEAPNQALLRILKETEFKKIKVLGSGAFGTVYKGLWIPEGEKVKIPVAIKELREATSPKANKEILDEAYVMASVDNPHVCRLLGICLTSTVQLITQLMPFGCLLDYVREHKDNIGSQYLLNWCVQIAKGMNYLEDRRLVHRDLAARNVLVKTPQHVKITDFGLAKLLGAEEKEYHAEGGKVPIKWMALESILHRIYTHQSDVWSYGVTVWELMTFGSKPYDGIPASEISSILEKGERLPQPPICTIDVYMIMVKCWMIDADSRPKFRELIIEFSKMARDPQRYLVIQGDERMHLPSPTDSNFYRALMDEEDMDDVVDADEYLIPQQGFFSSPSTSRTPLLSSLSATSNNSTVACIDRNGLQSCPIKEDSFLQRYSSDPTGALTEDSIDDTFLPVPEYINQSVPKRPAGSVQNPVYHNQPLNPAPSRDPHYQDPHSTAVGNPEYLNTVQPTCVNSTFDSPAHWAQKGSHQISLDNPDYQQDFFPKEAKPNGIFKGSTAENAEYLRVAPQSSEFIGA

CCN(CC)CCNCc1ccc(-c2ccc3ncnc(Nc4ccc(OCc5cccc(F)c5)c(Cl)c4)c3c2)o1 [Compound 6a, 4–(3-chloro-4-(3-fluorobenzyloxy)phenylamino)-6–(5-((N,N-diethyl(aminoethyl))aminomethyl)furan-2-yl)quinazoline]
numbers of late apoptotic cells compared with control groups (A549 cells [1]; A549, 10 µM): significantly higher | numbers of late apoptotic cells compared with control groups (A549 cells [1]; A549, 20 µM): significantly higher | numbers of necrosis cells compared with control groups (A549 cells [1]; A549, 20 µM): significantly higher | early apoptosis of A549 cells (A549 cells [1]; A549, 48 h, tested concentrations 20-2.5 µM, versus control): not significantly influenced | IC50 (SW480 cells; [5]): 6.67 ± 0.95 µM | percentage of cells in G0/G1 phase (A549 cells [2]; A549, 2.5 µM, PI): 54.15% | percentage of cells in G0/G1 phase (A549 cells [2]; A549, 5 µM, PI): 55.44% | percentage of cells in G0/G1 phase (A549 cells [2]; A549, 10 µM, PI): 51.77% | percentage of cells in G0/G1 phase (A549 cells [2]; A549, 20 µM, PI): 62.45% | effect on cell cycle of A549 cells (A549 cells [2]; A549, 20, 10, 5 and 2.5 µM): arrested in the G0/G1 phase | IC50 (A549 cells [3]; [6]): 5.46 ± 0.19 µM | IC50 (NCI-H1975 cells; [7]): 9.79 ± 0.07 µM | IC50 [4]: 0.0156 µM | IC50 (A431 cells; [8]): 2.21 ± 0.25 µM

CCN(CC)CCNCc1ccc(-c2ccc3ncnc(Nc4ccc(F)c(Cl)c4)c3c2)o1 [Compound 6b, 4–(3-chloro-4-fluorophenylamino)-6-(5-((N,N-diethyl(aminoethyl))aminomethyl)furan-2-yl)quinazoline]
IC50 (SW480 cells; [5]): 14.9 ± 2.43 µM | IC50 (A549 cells [3]; [6]): 18 ± 0.62 µM | melting point: 98.3 to 99.8 °C | IC50 (NCI-H1975 cells; [7]): 17.55 ± 0.03 µM | IC50 (A431 cells; [8]): 3.92 ± 1.1 µM

C#Cc1cccc(Nc2ncnc3ccc(-c4ccc(CNCCN(CC)CC)o4)cc23)c1 [Compound 6c, 4–(3-ethynylphenylamino)-6-(5-((N,N-diethyl(aminoethyl))aminomethyl)furan-2-yl)quinazoline]
IC50 (SW480 cells; [5]): 10.8 ± 1.34 µM | IC50 (A549 cells [3]; [6]): 12.1 ± 0.37 µM | melting point: 81.4 to 82.3 °C | IC50 (NCI-H1975 cells; [7]): 15.6 ± 1.41 µM | IC50 (A431 cells; [8]): 2.59 ± 0.15 µM

C/C=C/c1ccc(Nc2ncnc3ccc(-c4ccc(CNCCN(CC)CC)o4)cc23)cc1 [Compound 6d, 6-(5-((N,N-diethylethyl)aminomethyl)furan-2-yl)-4–(4-(E)-(propen-1-yl)phenylamino)quinazoline]
IC50 (SW480 cells; [5]): 4.21 ± 1.16 µM | IC50 (A549 cells [3]; [6]): 4.1 ± 0.66 µM | melting point: 89.9 to 91.3 °C | IC50 (NCI-H1975 cells; [7]): 5.13 ± 0.55 µM | IC50 (A431 cells; [8]): 2.09 ± 1.01 µM

CS(=O)(=O)CCNCc1ccc(-c2ccc3ncnc(Nc4ccc(OCc5cccc(F)c5)c(Cl)c4)c3c2)o1 [Lapatinib, reference compound]
numbers of late apoptotic cells compared with control groups (A549 cells [1]; A549, 20 µM): significantly higher | numbers of necrosis cells compared with control groups (A549 cells [1]; A549, 20 µM): significantly higher | IC50 (SW480 cells; SW480, 72 h): 12.6 ± 1.35 µM | percentage of cells in G2/M phase (A549 cells [2]; A549, 20 µM, PI): 19.41% | percentage of cells in S phase (A549 cells [2]; A549, 20 µM, PI): 19.93% | IC50 (A549 cells [3]; A549, 72 h): 14.9 ± 1.21 µM | IC50 (NCI-H1975 cells; NCI-H1975, 72 h): 12.7 ± 0.73 µM | IC50 (A431 cells; A-431, 72 h): 4.8 ± 0.71 µM

— article PMC6758725, “Novel 4-arylaminoquinazolines bearing N,N-diethyl(aminoethyl)amino moiety with antitumour activity as EGFR^wt-TK inhibitor” (Journal of Enzyme Inhibition and Medicinal Chemistry, 2019)
